Measured values as given in ChEMBL document CHEMBL3132743, “Synthesis of hetero annulated carbazoles: exploration of in vitro cytotoxicity and molecular docking studies” (Medchemcomm, 2013).

What was measured:
HeLa [1] = assay: Cytotoxicity against human HeLa cells after 48 hrs by MTT assay; assay type: functional, cell-based
MCF7 = assay: Cytotoxicity against human MCF7 cells after 48 hrs by MTT assay; assay type: functional, cell-based; details: MCF7, 48 h
HeLa [2] = assay: Ratio of ellipticine IC50 to compound IC50 for human HeLa cells; assay type: functional

Cc1ccc2[nH]c3c(c2c1)CC/C(=C\c1cc2c(ccc4ccccc42)nc1Cl)C3=O
IC50 (HeLa [1]): 35.8 µM
IC50 (MCF7): > 100 µM

O=C1/C(=C/c2cc3c(ccc4ccccc43)nc2Cl)CCc2c1[nH]c1ccc(Cl)cc21
IC50 (HeLa [1]): 32.5 µM
IC50 (MCF7): 75.5 µM

O=C1/C(=C/c2cc3c(ccc4ccccc43)nc2Cl)CCc2c1[nH]c1ccccc21
IC50 (HeLa [1]): 42.3 µM
IC50 (MCF7): > 100 µM

Cc1ccc2[nH]c3c(c2c1)CCc1c-3noc1-c1cc2c(ccc3ccccc32)nc1Cl
IC50 (HeLa [1]): 26.1 µM
IC50 (MCF7): 67.9 µM

Clc1ccc2[nH]c3c(c2c1)CCc1c-3noc1-c1cc2c(ccc3ccccc32)nc1Cl
IC50 (HeLa [1]): 22.3 µM
IC50 (MCF7): 55.1 µM

Clc1nc2ccc3ccccc3c2cc1-c1onc2c1CCc1c-2[nH]c2ccccc12
IC50 (HeLa [1]): 27.5 µM
IC50 (MCF7): 70.5 µM

CCOc1nc2c(c(-c3cc4c(ccc5ccccc54)nc3Cl)c1C#N)CCc1c-2[nH]c2ccc(C)cc12
IC50 (HeLa [1]): 9.63 µM
IC50 (MCF7): 37.4 µM

CCOc1nc2c(c(-c3cc4c(ccc5ccccc54)nc3Cl)c1C#N)CCc1c-2[nH]c2ccc(Cl)cc12
IC50 (HeLa [1]): 8.11 µM
IC50 (MCF7): 34.5 µM
Ratio IC50 (HeLa [2]): 1.21

CCOc1nc2c(c(-c3cc4c(ccc5ccccc54)nc3Cl)c1C#N)CCc1c-2[nH]c2ccccc12
IC50 (HeLa [1]): 12.3 µM
IC50 (MCF7): 46.6 µM

Cc1ccc2[nH]c3c(ccc4c(-c5cc6c(ccc7ccccc76)nc5Cl)nc(N)nc43)c2c1
IC50 (HeLa [1]): 14.8 µM
IC50 (MCF7): 39.4 µM

Nc1nc(-c2cc3c(ccc4ccccc43)nc2Cl)c2ccc3c4cc(Cl)ccc4[nH]c3c2n1
IC50 (HeLa [1]): 12.4 µM
IC50 (MCF7): 32.6 µM

Nc1nc(-c2cc3c(ccc4ccccc43)nc2Cl)c2ccc3c4ccccc4[nH]c3c2n1
IC50 (HeLa [1]): 18.6 µM
IC50 (MCF7): 42.9 µM

Cc1c2ccncc2c(C)c2c1[nH]c1ccccc12 [ELLIPTECINE]
IC50 (HeLa [1]): 9.81 µM
IC50 (MCF7): 16.7 µM
